# Measurements published in patent US20150105252A1, “SUBSTITUTED PYRAZOLES AS HERBICIDES” (E I DU PONT DE NEMOURS AND COMPANY, priority 2013, published 2015).
# Key:
# corn [1] = experiment: Test A preemergence; type: in vivo, Zea mays; conditions: preemergence; for Corn plant response rating (0 to 100 scale): 125 g ai/ha, visual injury approx. 10 days after treatment; for Corn plant response rating: 500 g ai/ha, visual injury after approx. 10 days, 0 to 100 scale (0 no effect, 100 complete control)
# Summary of the method: (§1)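 Growth medium: loam soil blended with sand. Preemergence treatment used a directed soil spray right after planting; postemergence treatment targeted seedlings at one to two leaves (2–10 cm height). Response was judged by eye relative to untreated plants about 10 days later on a 0–100 control scale.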
# barnyardgrass [2] = experiment: Test A preemergence; type: in vivo, Echinochloa crus-galli; conditions: preemergence
# Summary of the method: as §1
# sedge, umbrella = experiment: Test B flood; type: in vivo, Cyperus difformis; conditions: 250 g ai/ha, visual rating on 0 to 100 scale (0 no effect, 100 complete control), 13 to 15 days
# Summary of the method: (§2)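 Plants were grown to the 2-leaf stage and pots flooded to 3 cm above soil. Compounds were applied directly into the paddy water, with depth kept for the test. After 13–15 days in greenhouse, response was rated visually against controls on a 0 (no effect) to 100 (complete control) scale.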
# wheat [3] = experiment: Test A postemergence; type: in vivo, Triticum aestivum
# Summary of the method: as §1
# foxtail, giant [4] = experiment: Test A preemergence; type: in vivo, Setaria faberii; conditions: preemergence; for Foxtail, Giant plant response rating (0 to 100 scale): 125 g ai/ha, visual injury approx. 10 days after treatment; for Foxtail, Giant plant response rating: 500 g ai/ha, visual injury after approx. 10 days, 0 to 100 scale (0 no effect, 100 complete control)
# Summary of the method: as §1
# morningglory [5] = experiment: Test A preemergence; type: in vivo, Ipomoea spp.; conditions: preemergence; for Morningglory plant response rating (0 to 100 scale): 125 g ai/ha, visual injury approx. 10 days after treatment; for Morningglory plant response rating: 500 g ai/ha, visual injury after approx. 10 days, 0 to 100 scale (0 no effect, 100 complete control)
# Summary of the method: as §1
# crabgrass, large [6] = experiment: Test A postemergence; type: in vivo, Digitaria sanguinalis
# Summary of the method: as §1
# velvetleaf [7] = experiment: Test A preemergence; type: in vivo, Abutilon theophrasti; conditions: preemergence; for Velvetleaf plant response rating (0 to 100 scale): 125 g ai/ha, visual injury approx. 10 days after treatment; for Velvetleaf plant response rating: 500 g ai/ha, visual injury after approx. 10 days, 0 to 100 scale (0 no effect, 100 complete control)
# Summary of the method: as §1
# morningglory [8] = experiment: Test A postemergence; type: in vivo, Ipomoea spp.
# Summary of the method: as §1
# barnyardgrass [9] = experiment: Test B flood; type: in vivo, Echinochloa crus-galli; conditions: 250 g ai/ha, visual rating on 0 to 100 scale (0 no effect, 100 complete control), 13 to 15 days
# Summary of the method: as §2
# crabgrass, large [10] = experiment: Test A preemergence; type: in vivo, Digitaria sanguinalis; conditions: preemergence; for Crabgrass, Large plant response rating (0 to 100 scale): 125 g ai/ha, visual injury approx. 10 days after treatment; for Crabgrass, Large plant response rating: 500 g ai/ha, visual injury after approx. 10 days, 0 to 100 scale (0 no effect, 100 complete control)
# Summary of the method: as §1
# wheat [11] = experiment: Test A preemergence; type: in vivo, Triticum aestivum; conditions: preemergence; for Wheat plant response rating (0 to 100 scale): 125 g ai/ha, visual injury approx. 10 days after treatment; for Wheat plant response rating: 500 g ai/ha, visual injury after approx. 10 days, 0 to 100 scale (0 no effect, 100 complete control)
# Summary of the method: as §1
# barnyardgrass [12] = experiment: Test A postemergence; type: in vivo, Echinochloa crus-galli
# Summary of the method: as §1
# pigweed [13] = experiment: Test A postemergence; type: in vivo, Amaranthus retroflexus
# Summary of the method: as §1
# ducksalad = experiment: Test B flood; type: in vivo, Heteranthera limosa; conditions: 250 g ai/ha, visual rating on 0 to 100 scale (0 no effect, 100 complete control), 13 to 15 days
# Summary of the method: as §2
# velvetleaf [14] = experiment: Test A postemergence; type: in vivo, Abutilon theophrasti
# Summary of the method: as §1
# foxtail, giant [15] = experiment: Test A postemergence; type: in vivo, Setaria faberii
# Summary of the method: as §1
# pigweed [16] = experiment: Test A preemergence; type: in vivo, Amaranthus retroflexus; conditions: preemergence; for Pigweed plant response rating (0 to 100 scale): 125 g ai/ha, visual injury approx. 10 days after treatment; for Pigweed plant response rating: 500 g ai/ha, visual injury after approx. 10 days, 0 to 100 scale (0 no effect, 100 complete control)
# Summary of the method: as §1
# rice = experiment: Test B flood; type: in vivo, Oryza sativa; conditions: 250 g ai/ha, visual rating on 0 to 100 scale (0 no effect, 100 complete control), 13 to 15 days
# Summary of the method: as §2
# corn [17] = experiment: Test A postemergence; type: in vivo, Zea mays
# Summary of the method: as §1
# [18] = 125 g ai/ha, visual injury, 0 to 100 scale, approx. 10 days
# [19] = 500 g ai/ha, visual injury after approx. 10 days, 0 to 100 scale (0 no effect, 100 complete control)
# [20] = Postemergence, 500 g ai/ha, 0 to 100 scale (0 no effect, 100 complete control)
# [21] = postemergence, 125 g ai/ha, about 10 days, visual rating on 0 to 100 scale (0 no effect, 100 complete control)
Structure (SMILES),Corn plant response rating (0 to 100 scale) (corn [1]),Corn plant response rating (corn [1]),Barnyardgrass plant response rating (barnyardgrass [2]; [18]),Barnyardgrass plant response rating (barnyardgrass [2]; [19]),"Plant response rating, Sedge, Umbrella (sedge, umbrella)",Wheat plant response rating (wheat [3]; [20]),Wheat plant response rating (wheat [3]; [21]),"Foxtail, Giant plant response rating (0 to 100 scale) (foxtail, giant [4])","Foxtail, Giant plant response rating (foxtail, giant [4])",Morningglory plant response rating (0 to 100 scale) (morningglory [5]),Morningglory plant response rating (morningglory [5]),"Crabgrass, Large plant response rating (crabgrass, large [6]; [20])","Crabgrass, Large plant response rating (crabgrass, large [6]; [21])",Velvetleaf plant response rating (0 to 100 scale) (velvetleaf [7]),Velvetleaf plant response rating (velvetleaf [7]),Morningglory plant response rating (morningglory [8]; [20]),Morningglory plant response rating (morningglory [8]; [21]),"Plant response rating, Barnyardgrass (barnyardgrass [9])","Crabgrass, Large plant response rating (0 to 100 scale) (crabgrass, large [10])","Crabgrass, Large plant response rating (crabgrass, large [10])",further results
O=C(NC1CC1)c1cc(Cl)n(Cc2cccc(C(F)(F)F)c2)n1 [Compound 174],0,0,0,0,0,0,0,0,20,0,0,10,0,0,0,10,0,0,10,40,"Wheat plant response rating (0 to 100 scale) (wheat [11]): 0; Wheat plant response rating (wheat [11]): 0; Barnyardgrass plant response rating (barnyardgrass [12]; [20]): 10; Barnyardgrass plant response rating (barnyardgrass [12]; [21]): 0; Pigweed plant response rating (pigweed [13]; [20]): 90; Pigweed plant response rating (pigweed [13]; [21]): 20; Plant response rating, Ducksalad (ducksalad): 0; Velvetleaf plant response rating (velvetleaf [14]; [20]): 10; Velvetleaf plant response rating (velvetleaf [14]; [21]): 0; Foxtail, Giant plant response rating (foxtail, giant [15]; [20]): 0; Foxtail, Giant plant response rating (foxtail, giant [15]; [21]): 0; Pigweed plant response rating (0 to 100 scale) (pigweed [16]): 20; Pigweed plant response rating (pigweed [16]): 90; Plant response rating, Rice (rice): 0; Corn plant response rating (corn [17]; [20]): 10; Corn plant response rating (corn [17]; [21]): 0"
CCCc1cc(C(=O)Nc2ccc(F)cc2)nn1Cc1cc(C(F)(F)F)nn1C [Compound 150],0,0,0,0,65,0,0,0,20,0,0,10,10,0,0,30,30,0,0,20,"Wheat plant response rating (0 to 100 scale) (wheat [11]): 0; Wheat plant response rating (wheat [11]): 0; Barnyardgrass plant response rating (barnyardgrass [12]; [20]): 20; Barnyardgrass plant response rating (barnyardgrass [12]; [21]): 0; Pigweed plant response rating (pigweed [13]; [20]): 80; Pigweed plant response rating (pigweed [13]; [21]): 30; Plant response rating, Ducksalad (ducksalad): 0; Velvetleaf plant response rating (velvetleaf [14]; [20]): 10; Velvetleaf plant response rating (velvetleaf [14]; [21]): 10; Foxtail, Giant plant response rating (foxtail, giant [15]; [20]): 10; Foxtail, Giant plant response rating (foxtail, giant [15]; [21]): 0; Pigweed plant response rating (0 to 100 scale) (pigweed [16]): 50; Pigweed plant response rating (pigweed [16]): 100; Plant response rating, Rice (rice): 15; Corn plant response rating (corn [17]; [20]): 10; Corn plant response rating (corn [17]; [21]): 0"
CCCCc1cc(C(=O)NC2CC2)nn1Cc1ccnc(C(F)(F)F)c1 [Compound 151],0,0,0,60,60,10,0,50,100,0,30,80,30,0,70,90,50,0,80,100,"Wheat plant response rating (0 to 100 scale) (wheat [11]): 0; Wheat plant response rating (wheat [11]): 10; Barnyardgrass plant response rating (barnyardgrass [12]; [20]): 50; Barnyardgrass plant response rating (barnyardgrass [12]; [21]): 10; Pigweed plant response rating (pigweed [13]; [20]): 100; Pigweed plant response rating (pigweed [13]; [21]): 70; Plant response rating, Ducksalad (ducksalad): 0; Velvetleaf plant response rating (velvetleaf [14]; [20]): 60; Velvetleaf plant response rating (velvetleaf [14]; [21]): 30; Foxtail, Giant plant response rating (foxtail, giant [15]; [20]): 70; Foxtail, Giant plant response rating (foxtail, giant [15]; [21]): 20; Pigweed plant response rating (0 to 100 scale) (pigweed [16]): 70; Pigweed plant response rating (pigweed [16]): 100; Plant response rating, Rice (rice): 0; Corn plant response rating (corn [17]; [20]): 50; Corn plant response rating (corn [17]; [21]): 10"
CCc1cc(C(=O)NC2CC2)nn1Cc1nc(C(F)(F)F)no1 [Compound 163],0,0,10,60,0,0,0,20,70,0,70,70,20,10,50,90,30,0,50,100,"Wheat plant response rating (0 to 100 scale) (wheat [11]): 0; Wheat plant response rating (wheat [11]): 10; Barnyardgrass plant response rating (barnyardgrass [12]; [20]): 40; Barnyardgrass plant response rating (barnyardgrass [12]; [21]): 10; Pigweed plant response rating (pigweed [13]; [20]): 90; Pigweed plant response rating (pigweed [13]; [21]): 50; Plant response rating, Ducksalad (ducksalad): 0; Velvetleaf plant response rating (velvetleaf [14]; [20]): 80; Velvetleaf plant response rating (velvetleaf [14]; [21]): 50; Foxtail, Giant plant response rating (foxtail, giant [15]; [20]): 80; Foxtail, Giant plant response rating (foxtail, giant [15]; [21]): 10; Pigweed plant response rating (0 to 100 scale) (pigweed [16]): 30; Pigweed plant response rating (pigweed [16]): 100; Plant response rating, Rice (rice): 0; Corn plant response rating (corn [17]; [20]): 30; Corn plant response rating (corn [17]; [21]): 0"
